Measured values published in patent US12090153B2, “Combination therapy for the treatment of uveal melanoma” (The Board of Trustees of the University of Illinois, priority 2018, dated 2024).

Assays:
UM cell line MEL270 = assay: Screen of PAC-1 in combination with kinase inhibitors, percent cell death; format: cell-based; conditions: MEL270, 72-hour incubation, single agents and combination at the same concentrations (FIG. 2)
Source text: FIG. 2. […] These three types of fusion proteins are key driver alterations in multiple cancer types.

[1] = cited from earlier work
[2] = tested on: ROS1-rearranged lung cancers; conditions: cited from earlier work
92.1 = assay: PAC-1 single agent IC50 in uveal melanoma cell line, 72-hour incubation; format: cell-based; conditions: 92.1, GNAQ Mutant Q209L, error s.e.m.
Source text: (§1) UM cell lines express procaspase-3 (FIG. 1), and PAC-1 has activity as a single agent in a panel of UM cell lines (Table D). [table]

MEL202 = assay: as above; format: cell-based; conditions: MEL202, GNAQ Mutant Q209L, R210K, error s.e.m.
Source text: as §1

MEL270 = assay: as above; format: cell-based; conditions: MEL270, GNAQ Mutant Q209P, error s.e.m.
Source text: as §1

MEL285 = assay: as above; format: cell-based; conditions: MEL285, GNAQ/11 WT, error s.e.m.
Source text: as §1

MEL290 = assay: as above; format: cell-based; conditions: MEL290, GNAQ/11 WT, error s.e.m.
Source text: as §1

OMM1 = assay: as above; format: cell-based; conditions: OMM-1, OMM1, GNA11 Mutant Q209L, error s.e.m.
Source text: as §1

OMM2.5 = assay: as above; format: cell-based; conditions: OMM2.5, GNAQ Mutant Q209P, error s.e.m.
Source text: as §1

[3] = PAC-1 clinical study in human patients, safety; format: in vivo
Experimental: PAC-1 has been dosed in 34 human patients through 7 dose levels of PAC-1 (range: 75-750 mg). Two patients progressed during the first cycle of PAC-1 therapy. Thirty-two patients received PAC-1 for at least 2 dosing cycles (a cycle is 21 days of daily dosing followed by 7 days of no drug). As a result of stable disease responses, six patients received PAC-1 for 4 cycles, three patients received PAC-1 for 6 cycles and two patients received PAC-1 for 10 cycles.

[4] = GLP dog PK/preclinical PAC-1 toxicity studies; format: in vivo

| IC50 (92.1) [µM] | IC50 (MEL202) [µM] | IC50 (MEL270) [µM] | IC50 (MEL285) [µM] | IC50 (MEL290) [µM] | IC50 (OMM1) [µM] | IC50 (OMM2.5) [µM] | SMILES | Percent cell death (UM cell line MEL270) [%] | treatment-related adverse events of any grade: myalgias ([1]; n=27/119) [%] | treatment-related adverse events of any grade: nausea ([1]; n=33/119) [%] | treatment-related adverse events of any grade: paresthesias ([1]; n=34/119) [%] | treatment-related adverse events of any grade: dysgeusia ([1]; n=50/119) [%] | treatment-related adverse events of any grade: fatigue/asthenia ([1]; n=55/119) [%] | Disease control and progression-free survival [2] | serious adverse events (SAEs) associated with PAC-1 administration ([3]; 34 human patients, 7 dose levels, 75-750 mg) | neurotoxicity associated with PAC-1 dosing ([3]; neurological and neurocognitive assessments through dose level 7 (750 mg)) | Brain tissue findings [4] |
| --- | --- | --- | --- | --- | --- | --- | --- | --- | --- | --- | --- | --- | --- | --- | --- | --- | --- |
| – | – | – | – | – | – | – | CN1CCN(c2ccc(C(=O)Nc3n[nH]c4ccc(Cc5cc(F)cc(F)c5)cc34)c(NC3CCOCC3)c2)CC1 [entrectinib] | ~16 | 23 | 28 | 29 | 42 | 46 | durable disease control and prolonged progression-free survival | – | – | – |
| 3.6 ± 0.7 | 10.3 ± 0.2 | 9.8 ± 0.6 | 7.4 ± 2.6 | 11.7 ± 1.2 | 4 ± 0.8 | 9.5 ± 0.5 | C=CCc1cccc(/C=N/NC(=O)CN2CCN(Cc3ccccc3)CC2)c1O [PAC-1] | ~16 | – | – | – | – | – | – | No serious adverse events | no conclusive signs of neurotoxicity | brain tissue changes observed |
